Source: patent publication US5100907A, “Hydantoin esters” (Lonza, Inc., priority 1990, dated 1992)

What was measured:
Staphylococcus species a = test: Preservative challenge test against Staphylococcus species a; format: cell-based; conditions: end of 14 day period
Experimental: Microbiological challenge tests were also conducted with the lauric and oleic esters (I), representing molecules having C12 and C18 aliphatic fatty acid chain length moieties, respectively.
These preservative challenge tests were used to determine the biocidal performance of these two esters (I) in aqueous solution and dispersion formulations inoculated with a given one of two test organisms, previously isolated from a contaminated calcium carbonate (CaCO3) dispersion, i.e. gram-positive bacteria, designated Staphylococcus species a and Staphylococcus species b, as compared to three known biocides or preservatives, designated as DANTOGARD (trademark), Tektamer 38 (1,2-dibromo-2,4-dicyanobutane) and Nuodex PMA-18.
The solution formulation was represented by the inclusion of the test sample as preservative system in deionized water, and the dispersion formulation was represented by the inclusion of the test sample as preservative system in a CaCO3 aqueous dispersion (identified as Hydrocarb 60), the latter typifying a dispersed pigment medium, e.g. as used in a paint or other industrial dispersion or slurry. The antimicrobial activity of the test samples was evaluated at individually selective concentrations.
All these liquid samples were stored at room temperature until the start of the tests. The test organisms were maintained or nutrient agar at 4° C. and subcultured in nutrient broth (Difco), and a 24 hour culture incubated at 35° C. was used for the testing over a challenge test time period of 14 days.
The test formulations were prepared per a standardized procedure, by placing 20 ml aliquots of the stored sample into sterile test tubes, and then adding 0.1 ml of a standardized 10^6 suspension of a 24 hour culture in nutrient broth. Plate counts were taken immediately to determine the initial level of the microbial population, and the containers were incubated at 20°-25° C. Plate counts were retaken at 1, 3, 7 and 14 days, with the final reductions being calculated from the 14 days results.

[1] = HLB determination (weighted average method); format: physicochemical
Excerpt: Hydrophilic-Lipophilic Balance or HLB is a means of associating the hydrophilic and lipophilic characteristics between two surfactants. A "weighted average" method was used to determine the HLB of the esters (I), and by comparison of the precursor ester (Ia), in which two emulsifiers of known HLB values along with the test ester were incorporated in a mixture of mineral oil and water. Evaluation and HLB determination of each of a series of prepared emulsion samples were effected by visual inspection.
The HLB of the mixture "m" is calculated from the sum of the HLB contributions of each surfactant, "a", "b", "c", per Equation 2 which describes a system of oil, water, and three surfactants.
Given that [HLB]m, [HLB]a, and [HLB]b, are known, and the ideal amount of "a", "b", and "c" to prepare a perfect emulsion has been determined, then by rearrangement of Eq. 2, the HLB of "c" can be calculated by Equation 3.
To obtain the HLB of the test ester as surfactant "c", a series of formulations was prepared in which the known surfactant sorbitan monostearate (SMS) as "a" and the known surfactant POE 20 sorbitan monostearate (POE 20 SMS) as "b" were varied in amount (wt. %) relative to each other at a constant amount (1 wt. %) of "c", until an optimum emulsion was obtained. Different combinations of "a" and "b" were used to vary the HLB of "c", for emulsifying a 40:56 (wt. %) mixture of paraffin oil and distilled water (totaling 96 wt. %).
To prepare the emulsions, surfactants "a", "b", and "c", and the paraffin oil were combined in a 150 ml beaker and heated slowly with agitation to 70°-80° C. The value of "X" in each formulation was predetermined by rearranging Eq. 3 to solve for X, and then inserting into the equation various [HLB]c values for the test ester (i.e., 2, 3, 4, 5, 6 . . . ). The [HLB]c values chosen reflected a range that would likely contain the actual HLB of the test ester. Hot distilled water (70°-80° C.) was then slowly added with agitation. The total weight of all these reagents was 100 grams. The resulting emulsion was allowed to cool, with continued agitation, until the temperature dropped below 30° C.
A series of emulsions for each test was prepared, one at a time, and then examined as a set. Each sample within the series was evaluated and graded according to the quality of the emulsion by visual examination of droplet size.

Emulsion stability tests = format: physicochemical
Experimental: Emulsion stability tests were performed on the esters (I), and for comparison on the precursor esters (Ia), to determine the extent to which each stabilized a standardized solution of water and an oil, using a common procedure consisting of homogenizing a mixture containing the test ester (2%), myristyl propionate (7%), and water (91%). While two emulsifiers are normally used to prepare a cosmetic formulation, e.g. one with a high HLB and the other with a low HLB, the test method herein using only one emulsifier, i.e. the test ester, is fully indicative of the emulsifying attributes of these esters.
The tests were performed with emulsions (500 g), prepared by combining the test ester (10.0 g), myristyl propionate (35 g), and distilled water (455 g) in a container and homogenizing the contents for one minute, via a Kika-Werk Ultra-Turrax S D-45 homogenizer. The emulsions were poured into a one pound flint jar, capped, and periodically examined over a 55 day period.

[2] = Surface tension tests (cmc, Gibbs' Free Energy of Micellation); format: physicochemical
Experimental: Surface tension tests were conducted as to the relationship between the fatty acid aliphatic chain length, i.e. number of carbon atoms, in the esters (I), and their performance as surfactants. The length of the hydrophobic chain of a molecule is considered the major contributing factor to the critical micelle concentration (cmc) value of a surfactant. This value is obtained from surface tension measurement data. The lower the cmc, the more readily the material will form micelles.
The Gibbs' Free Energy of Micellation (ΔG°cmc) and the ΔG°cmc per --CH2 -- can be determined if the cmc is known.
The ΔG°cmc is a calculated value obtained by Equation 1.
ΔG°cmc =2.303RT(log cmc-log[water]) (Eq. 1)
The ΔG°cmc per --CH2 -- value is obtained from the slope of the straight line curve formed from a plot of ΔG°cmc versus the number of carbon atoms in the lipophilic chain.
The cmc values were based on surface tension tests conducted with a tensiometer (Cenco-DuNoug Precision Model #70535, direct reading model) to determine the upward surface tension at the liquid-air surface of the test ester/water solution. The methods used to calibrate the tensiometer, calculate the "correction factor" (used to correct for the difference between the apparent and true surface tension), and collect data, were conducted as described in the manual for the instrument. Sodium lauryl sulfate (SLS) and distilled water were used as reference samples.
On completing data collection, plots of the surface tension (dynes) versus -log of the concentration (mols/liter) were prepared, using only the "corrected" surface tension value, obtained by applying the noted "correction factor" in each case. The […] was found by multiplying the "apparent" surface tension by a calculated correction factor.
The critical micelle concentration (cmc) for each sample was determined by locating the point in the curve where the surface tension first begins to level off, per a known procedure.

[3] = among esters (I) examined, Table 6

Question: What does the source list for `CCCCCCCCCCCC(=O)OCCN1C(=O)N(CO)C(=O)C1(C)C` [Methylolated Lauric Ester, 2-(3-hydroxymethyl-5,5-dimethyl-1,3-diazacyclopentane-2,4-dion-1-yl)-ethylester of lauric acid]?
Answer: effectiveness as preservative (Staphylococcus species a; water): effective as preservatives in water; Average HLB [1]: 12.8; HLB Range [1]: 12-14; ability to stabilize emulsions (Emulsion stability tests): the best emulsifiers tested; duration of stabilized emulsions (Emulsion stability tests): more than 22 days; emulsion quality, decreasing order of rank (Emulsion stability tests): cocoate, laurate>oleate,isostearate>stearate>C8/10 ester>acetate; surface active properties [2]: particularly favorable surface active properties

Question: Which results are given for `CCCCCCCC/C=C\CCCCCCCC(=O)OCCN1C(=O)N(CO)C(=O)C1(C)C` [Methylolated Oleic Ester, 2-(3-hydroxymethyl-5,5-dimethyl-1,3-diazacyclopentane-2,4-dion-1-yl)-ethylester of oleic acid]?
Answer: effectiveness as preservative (Staphylococcus species a; calcium carbonate aqueous dispersions): effective as a preservative in calcium carbonate aqueous dispersions; effectiveness as preservative (Staphylococcus species a; water): effective as preservatives in water; Average HLB [1]: 15.0; HLB Range [1]: 14-16; emulsion quality, decreasing order of rank (Emulsion stability tests): cocoate, laurate>oleate,isostearate>stearate>C8/10 ester>acetate; surface active properties [2]: particularly favorable surface active properties; cmc, relative rank [2, 3]: the lowest cmc values; ΔG°cmc, relative rank [2, 3]: the lowest ΔG°cmc values; ΔG°cmc (Gibbs' Free Energy of Micellation) ([2]; calculated from cmc by Eq. 1, T=298° K.): -6.962 kcal/mol; cmc (critical micelle concentration) ([2]; ester/water solution): 4.0 × 10^-4 mol dm^-3
